This note sets out measurements from ChEMBL document CHEMBL1138016, “Azaadamantane benzamide 5-HT4 agonists: gastrointestinal prokinetic SC-54750” (Bioorg Med Chem Lett, 2004).

For experiment [1], the system named is Oryctolagus cuniculus. Kind of experiment: Effective concentration required for restoring normal motility after i.v. administration. It counts as functional, organism-based, Canis lupus familiaris.
The nature of experiment [2]: Concentration required for inhibition of Dopamine receptor D2 using [3H]spiperone as the radioligand.
Experiment [3] concerns the target T1, Adrenergic receptor alpha-1 (Homo sapiens, UniProt P35348+P25100+P35368).
T1 sequence (P35348 whole entry): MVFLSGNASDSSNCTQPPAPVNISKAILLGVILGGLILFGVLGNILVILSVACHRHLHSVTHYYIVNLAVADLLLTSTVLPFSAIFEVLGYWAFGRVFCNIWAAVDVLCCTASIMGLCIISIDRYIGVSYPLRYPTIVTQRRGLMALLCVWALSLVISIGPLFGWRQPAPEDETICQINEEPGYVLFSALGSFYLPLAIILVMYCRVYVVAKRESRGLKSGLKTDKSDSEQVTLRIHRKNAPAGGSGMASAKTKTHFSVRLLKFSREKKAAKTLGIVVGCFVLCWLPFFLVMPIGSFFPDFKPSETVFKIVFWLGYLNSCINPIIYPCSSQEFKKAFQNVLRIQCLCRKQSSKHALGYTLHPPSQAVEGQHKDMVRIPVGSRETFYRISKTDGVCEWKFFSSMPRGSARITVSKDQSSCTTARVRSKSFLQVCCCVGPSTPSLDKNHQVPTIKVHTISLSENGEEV
T1 sequence (P25100 whole entry): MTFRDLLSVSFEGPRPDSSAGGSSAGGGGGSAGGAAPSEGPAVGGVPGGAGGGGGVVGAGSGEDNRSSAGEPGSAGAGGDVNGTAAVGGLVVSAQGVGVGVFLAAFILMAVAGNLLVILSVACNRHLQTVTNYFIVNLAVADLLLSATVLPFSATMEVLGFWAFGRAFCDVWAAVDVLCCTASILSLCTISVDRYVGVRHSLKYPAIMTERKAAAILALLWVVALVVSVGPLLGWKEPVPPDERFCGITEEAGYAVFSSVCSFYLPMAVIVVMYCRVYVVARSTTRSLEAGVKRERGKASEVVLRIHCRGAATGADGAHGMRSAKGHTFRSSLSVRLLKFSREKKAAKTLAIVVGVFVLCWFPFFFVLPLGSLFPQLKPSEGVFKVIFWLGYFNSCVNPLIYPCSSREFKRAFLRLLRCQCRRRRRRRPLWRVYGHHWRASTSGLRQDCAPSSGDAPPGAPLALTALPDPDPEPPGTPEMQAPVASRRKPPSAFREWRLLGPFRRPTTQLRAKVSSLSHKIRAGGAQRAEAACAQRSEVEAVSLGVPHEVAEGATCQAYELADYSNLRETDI
T1 sequence (P35368 whole entry): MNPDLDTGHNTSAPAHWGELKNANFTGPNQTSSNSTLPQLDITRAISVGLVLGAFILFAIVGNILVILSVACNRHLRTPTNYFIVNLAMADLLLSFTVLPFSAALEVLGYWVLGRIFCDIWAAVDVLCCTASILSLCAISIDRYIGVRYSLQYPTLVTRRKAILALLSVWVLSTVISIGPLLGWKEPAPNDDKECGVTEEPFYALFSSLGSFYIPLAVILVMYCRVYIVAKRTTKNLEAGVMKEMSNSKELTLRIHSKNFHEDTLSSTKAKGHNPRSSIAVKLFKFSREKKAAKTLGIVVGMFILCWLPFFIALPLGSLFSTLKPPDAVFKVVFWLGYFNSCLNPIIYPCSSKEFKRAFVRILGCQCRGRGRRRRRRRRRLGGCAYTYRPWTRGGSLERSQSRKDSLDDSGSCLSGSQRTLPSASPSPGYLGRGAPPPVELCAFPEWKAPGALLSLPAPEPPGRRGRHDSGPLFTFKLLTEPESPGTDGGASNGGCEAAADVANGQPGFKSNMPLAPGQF
Description: Concentration required for inhibition of alpha-1 adrenergic receptor using [3H]prazosin as the radioligand. The class given is protein assay.

Experiment [4] is described as follows: Concentration required for inhibition of 5-hydroxytryptamine 1 receptor using [3H]-5-HT as the radioligand.
Experiment [5] can be described thus: Concentration required for inhibition of Dopamine receptor D1 using [3H]SCH-23,390 as the radioligand.
Experiment [6] concerns the target Adrenergic receptor beta (Homo sapiens, UniProt P08588+P07550+P13945). Kind of experiment: Concentration required for inhibition of beta adrenergic receptor. It counts as protein assay.
The test system of experiment [7] is Oryctolagus cuniculus. Description: Effective dose required for restoring normal motility after i.v. administration. It counts as functional, Canis lupus familiaris. As to conditions: iv.
Experiment [8] has as its system Canis familiaris. Kind of experiment: Tested for inhibition of cisplatin-induced emesis in dog after i.g. administration. The following applies: Canis lupus familiaris, po; read-out: ID50 (the source's name).
Experiment [9] concerns the target 5-hydroxytryptamine receptor 4 (Rattus norvegicus) (UniProt Q62758). Description: Effective concentration required towards 5-hydroxytryptamine 4 receptor in rat tunica muscularis mucosae.
Experiment [10] has as its target 5-hydroxytryptamine receptor 4 (Cavia porcellus). Description: Binding affinity for 5-hydroxytryptamine 4 receptor in guinea pig was determined by guinea pig striatum binding assay.

Chain of 5-hydroxytryptamine receptor 4 (Rattus norvegicus) (Q62758 whole entry, looked up): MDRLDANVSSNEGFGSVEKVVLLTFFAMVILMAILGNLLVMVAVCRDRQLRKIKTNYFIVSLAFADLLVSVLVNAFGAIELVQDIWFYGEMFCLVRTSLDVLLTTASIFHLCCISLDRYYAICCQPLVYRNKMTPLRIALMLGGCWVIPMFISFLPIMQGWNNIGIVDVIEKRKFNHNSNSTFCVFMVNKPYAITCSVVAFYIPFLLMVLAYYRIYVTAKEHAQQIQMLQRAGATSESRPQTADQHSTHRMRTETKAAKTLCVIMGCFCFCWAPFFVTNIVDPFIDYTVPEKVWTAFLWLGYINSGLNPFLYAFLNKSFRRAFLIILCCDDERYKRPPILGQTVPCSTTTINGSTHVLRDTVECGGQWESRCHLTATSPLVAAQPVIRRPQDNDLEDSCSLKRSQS

For orientation: IC50 means the concentration at which inhibition is half-maximal. Low readings indicate greater potency, high ones weaker potency. `COc1cc(N)c(Cl)cc1C(=O)NCC1C2CC3CC1CN(C3)C2` (stereo in doubt; 9c): the EC50 in [1] is 0.03 mg/kg. The concentration for half-maximal inhibition (IC50) in experiment [2], in [3], in [4], in experiment [5] and in experiment [6] was over 10 µM each time. In addition, the ED50 turned out to be 0.62 mg/kg in experiment [7] and 0.3 mg/kg in experiment [8].
A word on the Ki: it is a measure of affinity in units of concentration, obtained from inhibition or displacement. Read a high Ki as a looser hold on the target. With `COc1cc(N)c(Cl)cc1C(=O)NC1C2CC3CC1CN(C3)C2` (stereo in doubt; 9b), the IC50 in experiment [3] and in experiment [6] was over 10 µM each time. This compound registered an EC50 in [9] of 0.262 µM. Moreover, the inhibition constant (Ki) in [10] was 0.057 µM.
`COc1cc(N)c(Cl)cc1C(=O)NC1C2CC3CC1CN(C3)C2` (stereo in doubt; 9a): the IC50 in experiment [2], in experiment [3], in experiment [4], in experiment [5] and in [6] was over 10 µM in each case. The EC50 in experiment [9] amounted to 0.538 µM. In experiment [10], this compound came in with an inhibition constant Ki of over 0.5 µM.
